In US20250129104A1, “7H-PYRROLO[2,3-D]PYRIMIDINES AND PREPARATION AND USES THEREOF” (BioSplice Therapeutics, Inc., priority 2021, published 2025):

molecular target: recombinant DYRK1A kinase (Homo sapiens (Human), UniProt Q13627); assay: DYRK1A kinase assay (Ser/Thr 18 peptide Z-lyte FRET assay); assay type: biochemical; conditions: DYRK1A kinase activity; 15 μM ATP, 1 h room temperature; method text calls the value IC50
How it was run: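 FRET Z-lyte read-out (coumarin/fluorescein ratio, % phosphorylation) after 1 h development; IC50 from non-linear curve fit. Reaction: 0.25 μg/mL recombinant human DYRK1A, Ser/Thr 18 peptide 4 μM, ATP 15 μM, compound in 11-point 1:3 series from 10 μM, 1 h, room temperature, duplicate wells.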

`CN1CCN(c2ccc(Nc3ncc4c(-c5ccc6nccnc6c5)c[nH]c4n3)cn2)CC1` [Compound 1938, N-(6-(4-Methylpiperazin-1-yl)pyridin-3-yl)-5-(quinoxalin-6-yl)-7H-pyrrolo [2,3-d]pyrimidin-2-amine] and `CN1CCN(c2ccc(CNc3ncc4c(-c5ccc6ncncc6c5)c[nH]c4n3)cn2)CC1` [Compound 1982, N-((6-(4-Methylpiperazin-1-yl)pyridin-3-yl)methyl)-5-(quinazolin-6-yl)-7H-pyrrolo[2,3-d]pyrimidin-2-amine] are within 1.5-fold of each other in EC50: 3.3 nM for the first, 2.9 nM for the second.

`CC(C)(F)CNc1ncc2c(-c3ccc4ncncc4c3)c[nH]c2n1` [Compound 1956, N-(2-Fluoro-2-methylpropyl)-5-(quinazolin-6-yl)-7H-pyrrolo[2,3-d]pyrimidin-2-amine] and `CO[C@H]1C[C@@H](Nc2ncc3c(-c4ccc5ncccc5c4)c[nH]c3n2)C1` [Compound 2075, N-(cis-3-Methoxycyclobutyl)-5-(quinolin-6-yl)-7H-pyrrolo[2,3-d]pyrimidin-2-amine] are within 1.5-fold of each other in EC50: 11.9 nM for the first, 8 nM for the second.

First: CN1CCN(c2ncnc3ccc(-c4c[nH]c5nc(N)ncc45)cc23)CC1 [Compound 1986, 5-(4-(4-Methylpiperazin-1-yl)quinazolin-6-yl)-7H-pyrrolo[2,3-d]pyrimidin-2-amine]
Second: CN1CCN(c2ncnc3ccc(-c4c[nH]c5nc(C6CC6)ncc45)cc23)CC1 [Compound 1987, 6-(2-Cyclopropyl-7H-pyrrolo[2,3-d]pyrimidin-5-yl)-4-(4-methylpiperazin-1-yl)quinazoline]
The EC50 of the first is 1.7-fold lower: 41.6 nM for the first, 70.4 nM for the second. The first is the more potent here.

`CN1CCC(Oc2cnc3ccc(-c4c[nH]c5nc(N)ncc45)cc3n2)CC1` [Compound 1994, 5-(3-((1-Methylpiperidin-4-yl)oxy)quinoxalin-6-yl)-7H-pyrrolo[2,3-d]pyrimidin-2-amine] and `[2H]C([2H])([2H])O[C@H]1CC[C@@H](Nc2ncc3c(-c4ccc5nccnc5c4)c[nH]c3n2)CC1` [Compound 2173, N-(cis-4-(Methoxy-d3)cyclohexyl)-5-(quinoxalin-6-yl)-7H-pyrrolo[2,3-d]pyrimidin-2-amine] are within 1.5-fold of each other in EC50: 13.8 nM for the first, 10.5 nM for the second.

First: CN1CCN(c2cc(Nc3ncc4c(-c5ccn6ncc(-c7cccnc7)c6c5)c[nH]c4n3)ccn2)CC1 [Compound 2031, N-(2-(4-methylpiperazin-1-yl)pyridin-4-yl)-5-(3-(pyridin-3-yl)pyrazolo[1,5-a]pyridin-5-yl)-7H-pyrrolo[2,3-d]pyrimidin-2-amine]
Second: CNc1ncc2c(-c3ccn4ncc(C(=O)N5CCN(C)CC5)c4c3)c[nH]c2n1 [Compound 2032, (5-(2-(Methylamino)-7H-pyrrolo[2,3-d]pyrimidin-5-yl)pyrazolo[1,5-a]pyridin-3-yl)(4-methylpiperazin-1-yl)methanone]
The EC50 of the first is 4.6-fold lower: 12.8 nM for the first, 58.8 nM for the second.

First: CO[C@H]1C[C@@H](Nc2ncc3c(-c4ccc5nccn5n4)c[nH]c3n2)C1 [Compound 2053, 5-(Imidazo[1,2-b]pyridazin-6-yl)-N-(cis-3-methoxycyclobutyl)-7H-pyrrolo [2,3-d]pyrimidin-2-amine]
Second: CO[C@H]1C[C@@H](Nc2ncc3c(-c4ccn5nccc5n4)c[nH]c3n2)C1 [Compound 2070, N-(cis-3-Methoxycyclobutyl)-5-(pyrazolo[1,5-a]pyrimidin-5-yl)-7H-pyrrolo [2,3-d]pyrimidin-2-amine]
The EC50 of the first is 1.5-fold lower: 1.9 nM for the first, 2.9 nM for the second.

First: CO[C@H]1C[C@@H](Nc2ncc3c(-c4ccc5nccnc5c4)c[nH]c3n2)C1 [Compound 2076, N-(cis-3-Methoxycyclobutyl)-5-(quinoxalin-6-yl)-7H-pyrrolo[2,3-d]pyrimidin-2-amine]
Second: CCO[C@H]1CC[C@@H](Nc2ncc3c(-c4ccc5nnn(C)c5c4)c[nH]c3n2)CC1 [Compound 2143, N-(cis-4-Ethoxycyclohexyl)-5-(1-methyl-1H-benzo[d][1,2,3]triazol-6-yl)-7H-pyrrolo[2,3-d]pyrimidin-2-amine]
The EC50 of the first is 1.7-fold lower: 5.7 nM for the first, 9.9 nM for the second. The first is the more potent here.

Going from `FC(F)(F)O[C@H]1CC[C@@H](Nc2ncc3c(-c4ccn5nccc5c4)c[nH]c3n2)CC1` [Compound 2104, 5-(Pyrazolo[1,5-a]pyridin-5-yl)-N-(cis-4-(trifluoromethoxy)cyclohexyl)-7H-pyrrolo[2,3-d]pyrimidin-2-amine] to `CCO[C@H]1CC[C@@H](Nc2ncc3c(-c4ccn5nccc5n4)c[nH]c3n2)CC1` [Compound 2162, N-(cis-4-Ethoxycyclohexyl)-5-(pyrazolo[1,5-a]pyrimidin-5-yl)-7H-pyrrolo [2,3-d]pyrimidin-2-amine], the EC50 falls from 690 nM to 8.5 nM (81-fold).

`CCO[C@H]1CC[C@@H](Nc2ncc3c(-c4cc(F)c5nccn5c4)c[nH]c3n2)CC1` [Compound 2129, N-(cis-4-Ethoxycyclohexyl)-5-(8-fluoroimidazo[1,2-a]pyridin-6-yl)-7H-pyrrolo[2,3-d]pyrimidin-2-amine] and `OCCO[C@H]1CC[C@@H](Nc2ncc3c(-c4cc(F)c5nccn5c4)c[nH]c3n2)CC1` [Compound 2182, 2-((cis-4-((5-(8-Fluoroimidazo[1,2-a]pyridin-6-yl)-7H-pyrrolo[2,3-d]pyrimidin-2-yl)amino)cyclohexyl)oxy)ethan-1-ol] are within 1.5-fold of each other in EC50: 2.4 nM for the first, 3.1 nM for the second.

First: CCO[C@H]1CC[C@@H](Nc2ncc3c(-c4ccc5nccn5n4)c[nH]c3n2)CC1 [Compound 2145, N-(cis-4-Ethoxycyclohexyl)-5-(imidazo[1,2-b]pyridazin-6-yl)-7H-pyrrolo [2,3-d]pyrimidin-2-amine]
Second: [2H]C([2H])([2H])O[C@H]1CC[C@@H](Nc2ncc3c(-c4ccc5nccn5n4)c[nH]c3n2)CC1 [Compound 2171, 5-(Imidazo[1,2-b]pyridazin-6-yl)-N-(cis-4-(methoxy-d3)cyclohexyl)-7H-pyrrolo[2,3-d]pyrimidin-2-amine]
The EC50 of the first is 2-fold higher: 3 nM for the first, 1.5 nM for the second.

`[2H]C([2H])([2H])O[C@H]1CC[C@@H](Nc2ncc3c(-c4ccc5nnn(C)c5c4)c[nH]c3n2)CC1` [Compound 2172, N-(cis-4-(Methoxy-d3)cyclohexyl)-5-(1-methyl-1H-benzo[d][1,2,3]triazol-6-yl)-7H-pyrrolo[2,3-d]pyrimidin-2-amine] and `[2H]C([2H])([2H])O[C@H]1CC[C@@H](Nc2ncc3c(-c4cc(F)c5nccn5c4)c[nH]c3n2)CC1` [Compound 2180, 5-(8-Fluoroimidazo[1,2-a]pyridin-6-yl)-N-(cis-4-(methoxy-d3)cyclohexyl)-7H-pyrrolo[2,3-d]pyrimidin-2-amine] are within 1.5-fold of each other in EC50: 5 nM for the first, 3.9 nM for the second.

First: COc1nc(N[C@H](C)C(F)(F)F)nc2[nH]cc(-c3ccc4nccn4c3)c12 [Compound 2174, (R)-5-(Imidazo[1,2-a]pyridin-6-yl)-4-methoxy-N-(1,1,1-trifluoropropan-2-yl)-7H-pyrrolo[2,3-d]pyrimidin-2-amine]
Second: CCOc1nc(N[C@H](C)C(F)(F)F)nc2[nH]cc(-c3ccc4nccn4c3)c12 [Compound 2177, (R)-4-Ethoxy-5-(imidazo[1,2-a]pyridin-6-yl)-N-(1,1,1-trifluoropropan-2-yl)-7H-pyrrolo[2,3-d]pyrimidin-2-amine]
The EC50 of the first is 6.4-fold lower: 1.6 nM for the first, 10.3 nM for the second. The first is the more potent here.

`COC[C@@H](C)Nc1nc(OC)c2c(-c3ccc4nccn4c3)c[nH]c2n1` [Compound 2175, (R)-5-(Imidazo[1,2-a]pyridin-6-yl)-4-methoxy-N-(1-methoxypropan-2-yl)-7H-pyrrolo[2,3-d]pyrimidin-2-amine] and `COC[C@@H](C)Nc1nc(OC)c2c(-c3cc(F)c4nccn4c3)c[nH]c2n1` [Compound 2184] are within 1.5-fold of each other in EC50: 74.9 nM for the first, 69.9 nM for the second.

First: COc1nc(N[C@H]2CC[C@@H](OCC(F)F)CC2)nc2[nH]cc(-c3ccc4nccn4c3)c12 [Compound 2176, N-(cis-4-(2,2-Difluoroethoxy)cyclohexyl)-5-(imidazo[1,2-a]pyridin-6-yl)-4-methoxy-7H-pyrrolo[2,3-d]pyrimidin-2-amine]
Second: COc1nc(N[C@H]2CC[C@@H](OCC(F)F)CC2)nc2[nH]cc(-c3cc(F)c4nccn4c3)c12 [Compound 2187, N-(cis-4-(2,2-Difluoroethoxy)cyclohexyl)-5-(8-fluoroimidazo[1,2-a]pyridin-6-yl)-4-methoxy-7H-pyrrolo[2,3-d]pyrimidin-2-amine]
The EC50 of the first is 1.7-fold lower: 2.1 nM for the first, 3.6 nM for the second.

Compared with `C[C@@H](Nc1nc(OCCO)c2c(-c3ccc4nccn4c3)c[nH]c2n1)C(F)(F)F` [Compound 2178, (R)-2-((5-(imidazo[1,2-a]pyridin-6-yl)-2-((1,1,1-trifluoropropan-2-yl)amino)-7H-pyrrolo[2,3-d]pyrimidin-4-yl)oxy)ethan-1-ol], `COc1nc(N[C@H](C)C(F)(F)F)nc2[nH]cc(-c3cc(F)c4nccn4c3)c12` [Compound 2183, (R)-5-(8-Fluoroimidazo[1,2-a]pyridin-6-yl)-4-methoxy-N-(1,1,1-trifluoropropan-2-yl)-7H-pyrrolo[2,3-d]pyrimidin-2-amine] is 1.5-fold higher in EC50: 6.8 nM for the first, 10.4 nM for the second.

`C[C@]1(O)CC[C@@H](Nc2ncc3c(-c4cc(F)c5nccn5c4)c[nH]c3n2)CC1` [Compound 2179, cis-4-((5-(8-Fluoroimidazo[1,2-a]pyridin-6-yl)-7H-pyrrolo[2,3-d]pyrimidin-2-yl)amino)-1-methylcyclohexan-1-ol] and `COc1nc(N[C@H]2CC[C@@](C)(O)CC2)nc2[nH]cc(-c3cc(F)c4nccn4c3)c12` [Compound 2186, cis-4-((5-(8-Fluoroimidazo[1,2-a]pyridin-6-yl)-4-methoxy-7H-pyrrolo[2,3-d]pyrimidin-2-yl)amino)-1-methylcyclohexan-1-ol] are within 1.5-fold of each other in EC50: 2.2 nM for the first, 2.3 nM for the second.

First: Fc1cc(-c2c[nH]c3nc(N[C@H]4CC[C@@H](OCC(F)F)CC4)ncc23)cn2ccnc12 [Compound 2181, N-(cis-4-(2,2-Difluoroethoxy)cyclohexyl)-5-(8-fluoroimidazo[1,2-a]pyridin-6-yl)-7H-pyrrolo[2,3-d]pyrimidin-2-amine]
Second: COc1nc(NC2CCC(F)(F)CC2)nc2[nH]cc(-c3cc(F)c4nccn4c3)c12 [Compound 2185, N-(4,4-Difluorocyclohexyl)-5-(8-fluoroimidazo[1,2-a]pyridin-6-yl)-4-methoxy-7H-pyrrolo[2,3-d]pyrimidin-2-amine]
The EC50 of the first is 16-fold lower: 5.1 nM for the first, 82 nM for the second.
